One series has as its system Balb/c mice. Kind of series: Mouse caecum abrasion model of post surgical adhesion formation. The note with it: for adhesion score / length (mm) of caecum adherent to peritoneum, difference to vehicle groups: Compound X 200, Compound Y 30, calcitriol 0.6 ug/kg i.p. once, then orally at MTD (100, 3, 0.3 ug/kg) once a day for 4 days, day seven, Anova with Bonferroni, FIG. 3; for total adhesions score: sacrifice day seven, vs vehicle. In kind it is in vivo. An excerpt:
Female BALB/c mice (20 g; Charles River Breeding Laboratories) were used for all experiments. All mice were maintained under standard conditions of food and water ad libitum on a 12-hour day-night cycle according to Home Office regulations.
Adhesions were induced in mice with a protocol based on a procedure developed by Sulaiman and colleagues (Sulaiman H, Gabella G, Davis C, Mutsaers S E, Boulos P, Laurent G J, Herrick S E: Growth of nerve fibres into murine peritoneal adhesions. J Pathol 2000, 192:396-403). Briefly, mice were anesthetized with a mixture of inhaled isoflurane and oxygen, and a midline incision was made through the abdominal wall and peritoneum. A standard site (6 mm diameter and 1 mm depth), midway and 0.5 cm lateral to the midline incision on the left abdominal wall, was injured scraping 30 times with a scalpel blade. The cecum was isolated and scraped 30 times on its lateral aspect with a scalpel blade, after first irrigating with 0.9% sterile saline. The two injured surfaces were then apposed by placing two horizontal mattress sutures (8/0 Ethilon; Ethicon, Berkshire, UK) 1 cm apart. The midline incision was closed in two layers; the linea-alba with a continuous suture, and then the skin using michel suture clips (Aesculap, Tuttlingen Germany). This model was validated using leuprolide acetate, a GnRH agonist (Enantone, Takeida) injected at 1 mg/kg one week before surgery. The animals were sacrified at day 7 as usual and adhesion score reduction was evaluated.
To assess the effects of vitamin D compounds on adhesion formation, peritoneal adhesions were induced in 10 animals that were randomized to experimental groups receiving the vitamin D compound or vehicle. In the initial study, animals in the experimental group (n=5) received 0.1-ml i.p. injection of 200 ug/kg of Compound X in saline solution or vehicle (saline solution) only (n=5), at the surgery day then 4 days of daily oral administration (Compound X 100 ug/kg in miglyol or miglyol vehicle only). A second experiment was done with one group of animals (n=5) receiving 0.1-ml i.p. injection of 6 ug/kg of Compound Y in saline solution at the surgery day and then 4 days of daily oral administration (3 ug/kg in miglyol). Control animals (n=5) were similarly administered with vehicle alone (miglyol or saline solution according to the route of administration). The third experiment was designed to compare the effect of calcitriol. Briefly, 28 animals were operated and randomized four different groups: vehicle (miglyol or saline solution according to the route of administration) (n=13), Compound X i.p. […] 30 ug/kg plus three days oral administration at MTD (n=5), calcitriol i.p. […] All animals were killed at 7 days, and the adhesions were quantified in a blinded fashion. Each animal received an adhesion score based on the number, length and strength of adhesions formed. Millimetres of caecum adherent to peritoneum was also measured.

The nature of series [1]: Intraperitoneal single administration, serum calcium levels. In kind it is in vivo, mouse. Conditions: female BALB/c mice, single i.p., FIG. 9.
The nature of series [2]: Colorimetric serum calcium level in animals of the adhesion experiment (FIG. 4). In kind it is in vivo, mouse. Conditions: animals of the FIG. 3 experiment. As for the experimental part: (§1) Serum calcium was measured with Calcium Dry-fast kit (Sentinel diagnostics, Milan, Italy) with minor modification over the standard method: 10 ul serum, standard solution, or water are added to 100 ul of reconstituted assay reagent in a 96 well plate and incubated 5 min before reading at 550 nm, RT. Standards are run in quadruplicate, blank (water) in duplicate, and samples in triplicate.
Blood serum was obtained from animals of the experiment described in FIG. 3 and calcium level was measured.

The subject of series [3] is Human mesothelial cells (LP9). The experiment in a line: tPA and PAI-1 production by ELISA in human mesothelial cells. The note with it: different doses; supernatants at 48 h; FIG. 8. In kind it is cell-based. The procedure:
Human mesothelial cells (LP9, Cornell University) were plated in a 96 well plate in the presence of different doses of Compound Y. Supernatants were harvested at 48 h and tPA and PAI-1 production was measured by ELISA. tPA/PAI-1 ratio was calculated. Statistical analysis was performed by ANOVA test.

The subject of another series is hairless mice. Kind of series: Full thickness wound healing mouse model. In kind it is in vivo. The note with it: daily oral 3 mg/kg, 5 days a week, 5 hairless mice per group, vs vehicle, FIG. 13. The procedure: One full thickness wound of 1 cm in diameter was marked using a template and the tissue was excised to the level of the panniculus carnosus using dissecting scissors and forceps. The wound healing was determined by drawing the wound margin with tracing film. The rate of wound healing is expressed as the percentage area remaining 5 hairless mice per group, daily oral treatment with 3 mg/kg of Compound Y, 5 days a week. Wound healing curve using the Boltzman equation and V50 (half time of wound healing) were calculated.

The subject of the next series is Human mesothelial cells. The experiment in a line: VEGF and TGF-b production by ELISA in human mesothelial cells. In kind it is cell-based. Conditions: different doses; supernatants at 48 h; FIG. 14. The procedure:
Human mesothelial cells (Cornell Cell Repositories) were plated in a 96 well plate in the presence of different doses of Compound Y. Supernatants were harvested at 48 h and VEGF and TGF-b production was measured by ELISA. Total number of live cells were quantified by fluorimetric assay.
Background: In an ELISA, binding on a coated surface is turned into a signal by an enzyme label.

A short description of series [4]: Serum calcium levels in DUH rabbit model animals. In kind it is in vivo. The note with it: both doses; prior to surgery, 24 hours after surgery and prior to necropsy; FIG. 12. As for the experimental part:
One ml of blood was drawn into red top tubes prior to surgery, 24 hours after surgery and prior to necropsy to allow the generation of serum to measure serum calcium levels. The blood was allowed to clot, the serum harvested by centrifugation and the serum calcium measured.

The next series deals with CPSS mouse model. The experiment in a line: CPSS (cecal peritoneal scraping and sewing) mouse model of post-surgical adhesion, dose response. In kind it is in vivo. Conditions: 30-100-300 ug/kg i.p. at the end of surgery; sacrifice after two weeks; vs vehicle; FIG. 10. As for the experimental part: Different doses of Compound Y were tested in the CPSS (cecal peritoneal scraping and sewing) mouse model of post-surgical adhesion. Animals were treated with 30-100-300 ug/kg of Compound Y in […] of sterile saline with 0.1% Tween-20, 0.1% ethanol, i.p. at the end of surgery. Animals were sacrificed after two weeks and peritoneral adhesion evaluated. Means of in situ score of the four groups were compared and percentage of reduction of the mean in situ score of treated animals compared with vehicle group was considered.

Series [5] relates to New Zealand White rabbits. The experiment in a line: Double uterine horn (DUH) rabbit model of post-surgical adhesions. In kind it is in vivo. The procedure: Animals: Twenty eight, female New Zealand White rabbits, 2.4-2.7 kg, were purchased from Irish Farms (Norco, Calif.) and quarantined for at least 2 days prior to use. Seven rabbits were randomized into four treatment groups prior to initiation of surgery. The rabbits were housed on a 12:12 light:dark cycle with food and water available ad libitum.
Double Uterine Horn Model: Rabbits were anesthetized with a mixture of 55 mg/kg ketamine hydrochloride and 5 mg/kg Rompum intramuscularly. Following preparation for sterile surgery, a midline laparotomy was performed. The uterine horns were exteriorized and traumatized by abrasion of the serosal surface with gauze until punctate bleeding developed. Ischemia of both uterine horns was induced by removal of the collateral blood supply. The remaining blood supply to the uterine horns was the ascending branches of the utero-vaginal arterial supply of the myometrium. Treated animals received 25 mL of either vehicle (lactated Ringers' solution with 0.1% Tween 20, 0.1% isopropyl alcohol), or vehicle with one of two doses of Compound Y (30 or 300 μg/kg). An additional group of animals received surgery only. The horns were then returned to their normal anatomic position and the midline sutured with 3-0 Vicryl. The animals were weighed before surgery and necropsy.
After 7 days, the rabbits were terminated and the percentage of the area of the horns adherent to various organs determined.
In addition an overall score which took into account all of the above data was given to each rabbit. The following scoring system was used:
The rabbits were scored by two independent observers that were blinded to the prior treatment of the animal. If there was disagreement as to the score to be assigned to an individual animal, the higher score was given.

The test system of another series is 3T3-L1 cells. The experiment in a line: Fibrin clot lysis by mouse fibroblasts 3T3-L1. In kind it is cell-based. The note with it: cells incubated overnight with 10^-6 to 10^-9 M; normalized to untreated cells; FIG. 7. The procedure: Confluent 3T3-L1 cells were incubated overnight with the following compounds: TGF-β1 5 ng/ml, Compound Y 10^−6, 10^−7, 10^−8 and 10^−9 M. After removing the supernatants, Fibrinolysis Buffer containing 3 μM fibrinogen and 100 nM plasminogen (“BM”) was added to each well. A fibrin clot was induced by adding 20 nM thrombin. Plates were incubated at 37° C. and clot density was determined by measuring optical density at 405 nm. Results were shown as relative fibrin clot density at different timepoints normalized to untreated cells.

Series [6] in a line: Serum calcemia after i.p. or i.p. plus oral Compound Y in CD1 mice (FIG. 5). In kind it is in vivo, mouse. Conditions: different doses i.p., or i.p. plus oral for 3 days at MTD (3 ug/kg), 24 h after the last administration. As for the experimental part: as §1
CD1 mice were used to test serum calcemia after different doses of Compound Y administered i.p. A second group of animals received both i.p. (different doses) and oral administration for 3 days at MTD (3 ug/kg). Serum calcemia was measured 24 h after the last administration.

A further series relates to C57/BL6 mice. Kind of series: CLP (cecal ligation and puncture) mortality due to infection potentiation. In kind it is in vivo, mouse. The note with it: 30 mg/kg IP on the day of surgery; ten mice per group; vs vehicle; FIG. 15. The procedure: CLP (cecal ligation and puncture) was performed with 23G needle and 50-70% of cecal ligation. Compound Y 30 mg/kg was administered IP on the day of surgery. The mortality was checked twice a day. Ten C57/BL6 mice per group were used.

Entries after “also recorded” stand apart in the source; their conditions may differ.

As for `CCNC(=O)[C@@H]1CCCN1C(=O)[C@H](CCCNC(=N)N)NC(=O)[C@H](CC(C)C)NC(=O)[C@@H](CC(C)C)NC(=O)[C@H](Cc1ccc(O)cc1)NC(=O)[C@H](CO)NC(=O)[C@H](Cc1c[nH]c2ccccc12)NC(=O)[C@H](Cc1c[nH]cn1)NC(=O)[C@@H]1CCC(=O)N1` [leuprolide acetate, reference compound], the total adhesion score result in the series with Balb/c mice (1 mg/kg injected one week before surgery, sacrifice day 7, model validation, FIG. 6) was “statistically significant reduction”.

As for `C=C1/C(=C\C=C2/CCC[C@]3(C)[C@@H]([C@H](C)CCCC(C)(C)O)CC[C@@H]23)C[C@@H](O)C[C@@H]1O` [calcitriol, reference compound], in series [1] (16 and 24 hours after administration), the serum calcemia result is “more pronounced and sustained hypercalcemia”. For the same compound, in the series with Balb/c mice, the “adhesion score / length (mm) of caecum adherent to peritoneum, difference to vehicle groups” value is “statistically significant”.

For the compound `C=C1/C(=C\C=C2/CCC[C@]3(C)C([C@@H](C)C/C=C/C(O)(CC)CC)=CC[C@@H]23)C[C@@H](O)C[C@@H]1F` [Compound X, 1-alpha-fluoro-25-hydroxy-16,23E-diene-26,27-bishomo-20-epi-cholecalciferol], the serum calcium level result in [2] is “slightly hypercalcemic”. The total adhesions score entry in the series with Balb/c mice (200 ug/kg i.p. once four hours after surgery, then oral 100 ug/kg once a day for 4 days, FIG. 1) is reported as “significantly reduces”. Further, the “adhesion score / length (mm) of caecum adherent to peritoneum, difference to vehicle groups” value in the series with Balb/c mice was “statistically significant”.

`CC(C)(O)CCCC(CCCC(C)(C)O)[C@H]1CC[C@H]2/C(=C/C=C3C[C@@H](O)C[C@H](O)C3)CCC[C@]12C` [Compound Y, 1,25-dihydroxy-21-(3-hydroxy-3-methylbutyl)-19-nor-cholecalciferol]: in [3], the tPA/PAI-1 ratio entry is listed as “increased”. Also, the serum calcemia result is recorded as “Transient hypercalcemia” in series [1] (high dosage (300 mg/kg)) and “no hypercalcemic effect” in [6]. Also, in the series on hairless mice, the “wound healing (percentage wound area remaining, healing curve, V50)” value is “No statistically significant difference; also recorded: does not delay wound healing”. Besides, the TGF-b production entry with Human mesothelial cells is on record as “does not affect”. For the same compound, in the series on Human mesothelial cells, the VEGF production result is reported as “does not affect”. Also, the “serum calcium (signs of hypercalcemia)” value in [4] is recorded as “No signs of hypercalcemia”. The “cecal-peritoneal adhesion formation (mean in situ score)” value in the series on CPSS mouse model is given as “reduces cecal-peritoneal adhesion formation in a dose dependent manner”. The “adhesion formation (overall adhesion score)” value in series [5] (30 or 300 ug/kg in 25 mL at surgery, 7 days, P<0.001 for both doses compared with both controls, FIG. 11) is listed as “significantly reduced”. In addition, the “peritoneal inflammation, weight loss or hypercalcemia at necropsy” value in [5] (30 or 300 ug/kg, necropsy after 7 days) is “No peritoneal inflammation, weight loss or hypercalcemia were observed”. Also, the “efficacy in preventing adhesion formation compared with prior studies of icodextrin” value in series [5] (DUH rabbit model, icodextrin data from Verco et al. 2000, FIG. 16) is recorded as “comparable efficacy”. For the same compound, the “efficacy in preventing adhesion formation compared with prior studies of lazaroids” value in series [5] (DUH rabbit model, lazaroid data from Rodgers et al. 1998, FIG. 17) is “comparable efficacy”. Further, the “fibrin clot lysis (relative fibrin clot density, OD 405 nm)” value in the series on 3T3-L1 cells is on record as “accelerates fibrin clot lysis by mouse fibroblasts in a dose dependent manner”. Besides, the total adhesions score result in the series with Balb/c mice (6 ug/kg i.p. once four hours after surgery, then orally 3 ug/kg once a day for 4 days, FIG. 2) is “significantly reduces”. Moreover, in the series on Balb/c mice, the “adhesion score / length (mm) of caecum adherent to peritoneum, difference to vehicle groups” value is on record as “statistically significant”. Also, the “mortality (survival curves, log rank test)” value in the series with C57/BL6 mice is recorded as “no statistically significant difference”.

Source of the values: patent publication US20100093675A1, “NOVEL METHOD” (BIOXELL S.P.A., priority 2006, published 2010).
